The results in this text go back to US12594277B2, “Macrocyclic ULK1/2 inhibitors” (SALK INSTITUTE FOR BIOLOGICAL STUDIES, priority 2020, dated 2026).

The target of assay [1] is T1, recombinant human ULK1 protein (1-649) (Homo sapiens, UniProt O75385).
T1 construct: recombinant human ULK1 protein (1-649, SignalChem #U01-11G); purchased SignalChem U01-11G
T1 sequence (O75385 1-649): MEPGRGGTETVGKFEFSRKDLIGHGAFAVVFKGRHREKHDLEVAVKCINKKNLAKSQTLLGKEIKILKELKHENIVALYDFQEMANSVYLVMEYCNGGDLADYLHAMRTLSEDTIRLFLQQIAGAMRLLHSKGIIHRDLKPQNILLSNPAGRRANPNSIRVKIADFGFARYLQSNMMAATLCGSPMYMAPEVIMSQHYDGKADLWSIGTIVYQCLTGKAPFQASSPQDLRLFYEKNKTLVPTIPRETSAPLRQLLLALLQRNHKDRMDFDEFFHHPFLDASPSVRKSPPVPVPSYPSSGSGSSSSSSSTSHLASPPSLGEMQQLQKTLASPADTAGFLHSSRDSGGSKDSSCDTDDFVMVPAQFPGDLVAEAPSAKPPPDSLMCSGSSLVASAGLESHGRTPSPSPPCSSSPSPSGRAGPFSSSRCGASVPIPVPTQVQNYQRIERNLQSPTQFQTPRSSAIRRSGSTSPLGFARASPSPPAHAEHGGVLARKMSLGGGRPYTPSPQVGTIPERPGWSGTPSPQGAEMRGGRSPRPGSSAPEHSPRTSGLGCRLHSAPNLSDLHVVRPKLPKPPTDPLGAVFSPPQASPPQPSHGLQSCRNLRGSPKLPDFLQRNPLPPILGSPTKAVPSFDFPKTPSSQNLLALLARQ
Put plainly: ULK1 inhibition assay (ADP-Glo). Format: biochemical. Particulars: 2 ug/mL ULK1, 80 ug/mL myelin basic protein, 25 uM ATP, assessed after one hour. As for the experimental part: IC50s measured by ADP-Glo assay are represented nM, with A representing IC50<20 nM, B representing IC50>20 nM. NT indicates the compound was not tested. ULK1 inhibition assays were performed in a 5 uL reaction volume containing 2 ug/mL recombinant human ULK1 protein (1-649, SignalChem #U01-11G) and 80 ug/mL myelin basic protein (MBP, Sigma-Aldrich #M1891) in the presence of 25 uM ATP (Sigma-Aldrich A7699). ULK 1 inhibition was assessed after one hour. Compounds were tested in triplicate in a 16-dose IC50 mode with 3-fold serial dilution and a starting dose of 30 uM. Staurosporine, a non-selective protein kinase inhibitor, was used in the assay as a positive control. Three separate experiments were carried out.
Background: ADP-Glo first removes unused ATP, then detects ADP through luciferase.

For assay [2], the target named is T2, NanoLuc-ULK1 fusion in HEK293T cells (Homo sapiens, UniProt O75385).
T2 construct: host or cells: HEK293T
T2 sequence (O75385 1-1050): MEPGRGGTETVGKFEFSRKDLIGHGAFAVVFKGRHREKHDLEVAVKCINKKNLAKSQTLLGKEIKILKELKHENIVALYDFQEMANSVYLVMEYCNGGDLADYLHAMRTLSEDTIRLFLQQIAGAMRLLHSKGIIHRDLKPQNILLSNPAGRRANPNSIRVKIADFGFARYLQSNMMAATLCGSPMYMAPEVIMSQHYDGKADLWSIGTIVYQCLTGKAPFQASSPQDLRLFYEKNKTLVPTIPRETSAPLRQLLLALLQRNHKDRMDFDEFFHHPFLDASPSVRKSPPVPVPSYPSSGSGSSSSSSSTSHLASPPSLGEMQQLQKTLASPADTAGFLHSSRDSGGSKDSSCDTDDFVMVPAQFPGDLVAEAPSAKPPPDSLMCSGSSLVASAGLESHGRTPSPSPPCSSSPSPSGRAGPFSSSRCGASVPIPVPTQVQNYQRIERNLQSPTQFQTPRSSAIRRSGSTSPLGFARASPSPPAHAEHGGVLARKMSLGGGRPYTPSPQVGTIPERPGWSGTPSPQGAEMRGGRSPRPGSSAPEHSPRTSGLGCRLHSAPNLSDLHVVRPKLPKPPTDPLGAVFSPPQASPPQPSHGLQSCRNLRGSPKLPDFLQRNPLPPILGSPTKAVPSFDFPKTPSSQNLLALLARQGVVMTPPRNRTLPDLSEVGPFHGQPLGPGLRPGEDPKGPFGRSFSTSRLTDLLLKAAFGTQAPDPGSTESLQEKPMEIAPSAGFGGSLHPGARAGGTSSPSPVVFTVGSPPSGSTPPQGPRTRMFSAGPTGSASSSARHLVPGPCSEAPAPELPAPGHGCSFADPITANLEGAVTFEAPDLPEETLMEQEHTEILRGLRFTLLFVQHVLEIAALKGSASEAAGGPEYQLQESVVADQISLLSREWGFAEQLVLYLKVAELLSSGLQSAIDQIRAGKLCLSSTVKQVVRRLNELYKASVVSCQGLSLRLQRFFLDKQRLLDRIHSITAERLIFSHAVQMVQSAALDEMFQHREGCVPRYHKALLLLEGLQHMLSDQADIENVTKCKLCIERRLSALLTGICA
Put plainly: ULK1 NanoBRET assay. Particulars: HEK293T transfected with NanoLuc-ULK1 Fusion Vector, Tracer K-5, 2 h incubation. Type of assay: cell-based. Here is the method: IC50s were also measured by ULK1 NanoBRET assay according to the following protocol: Human embryonic kidney cells (HEK293T) were transfected with NanoLuc®-ULK1 Fusion Vector (Promega #NV2211) using jetPRIME transfection reagent (Polyplus Transfection #114-15). Following 24 h, cells were trypsinized and resuspended in Opti-MEM® I (1×), Reduced Serum Medium (Gibco, #11058-021). Approximately, 7,000 cells per well (in 34 μL total volume) were replated into non-binding surface 384 well plates. Complete NanoBRET 20× Tracer K-5 reagent was prepared according to the manufacturer's directions and 2 μL were added to each well of the 384 plate (assay plate). The assay plate was mixed on an orbital shaker for 15 seconds at 700 rpm. Compounds were serially diluted at 200× final concentration in […], then diluted to 10× final concentration in assay media (Opti-MEM® I, Reduced Serum Medium). Next, 4 μL 10× test compounds were added to each well of the assay plate, followed by mixing at 700 rpm for 15 seconds. The assay plate was incubated for 2 h in a 37 C incubator with […] and then equilibrated to RT for 15 min. The 3× Complete Substrate plus Inhibitor Solution was prepared according to the manufacturer's directions with a concentration of Extracellular NanoLuc® Inhibitor of 60 μM to be used at a working concentration of 20 μM. The 3× Complete Substrate plus Inhibitor Solution was mixed and 20 μL per well was added to the assay plate and incubated at RT for 2-3 min. Donor emission wavelength (450 nm) and acceptor emission wavelength (610 nm) were measured using an assay compatible luminometer (see manufacturer's specifications).

As usually defined, the IC50 is the midpoint of a concentration-inhibition curve. With `CNC(=O)c1cc2ccc1Nc1nc(ncc1C(F)(F)F)Nc1ccc(c(OC)c1)OCCCCCO2` [Compound 1, 1^3-Methoxy-N-methyl-3^5-(trifluoromethyl)-6,12-dioxa-2,4-diaza-3(2,4)-pyrimidina-1,5(1,4)-dibenzenacyclododecaphane-5^2-carboxamide], the 50% inhibitory concentration (IC50) was < 20 nM in assay [1] and > 1000 nM in assay [2].
On to `C=CCCOc1ccc(Nc2nc(Nc3ccc(OCC=C)c(OC)c3)ncc2C(F)(F)F)c(C(=O)NC)c1` [Compound 2, 2-((2-((4-(Allyloxy)-3-methoxyphenyl)amino)-5-(trifluoromethyl)pyrimidin-4-yl)amino)-5-(but-3-en-1-yloxy)-N-methylbenzamide], for which, in assay [1], the half-maximal inhibitory concentration (IC50) was > 20 nM.
With `CNC(=O)c1cc2ccc1Nc1nc(ncc1C(F)(F)F)Nc1ccc(c(OC)c1)OC/C=C/CCO2` [Compound 3, (E)-1^3-methoxy-N-methyl-3^5-(trifluoromethyl)-6,12-dioxa-2,4-diaza-3(2,4)-pyrimidina-1,5(1,4)-dibenzenacyclododecaphan-9-ene-5^2-carboxamide], the IC50 in assay [1] was > 20 nM; in assay [2] it was < 1000 nM.
With `CNC(=O)c1cc2ccc1Nc1nc(ncc1C(F)(F)F)Nc1ccc(c(OC)c1)OC/C=C\CCO2` [Compound 4, (Z)-1^3-methoxy-N-methyl-3^5-(trifluoromethyl)-6,12-dioxa-2,4-diaza-3(2,4)-pyrimidina-1,5(1,4)-dibenzenacyclododecaphan-9-ene-5^2-carboxamide], the figures for the IC50 in assay [1] and in assay [2] were > 20 nM and < 1000 nM, respectively.
As for `C=CCCCOc1ccc(Nc2nc(Nc3ccc(OCC=C)c(OC)c3)ncc2C(F)(F)F)c(C(=O)NC)c1` [Compound 5, 2-((2-((4-(Allyloxy)-3-methoxyphenyl)amino)-5-(trifluoromethyl)pyrimidin-4-yl)amino)-N-methyl-5-(pent-4-en-1-yloxy)benzamide], the 50% inhibitory concentration (IC50) in assay [1] is > 20 nM; in assay [2] it was > 1000 nM.
The like results for `CNC(=O)c1cc2ccc1Nc1nc(ncc1C(F)(F)F)Nc1ccc(c(OC)c1)OC/C=C/CCCO2` [Compound 6, (E/Z)-1^3-Methoxy-N-methyl-3^5-(trifluoromethyl)-6,13-dioxa-2,4-diaza-3(2,4)-pyrimidina-1,5(1,4)-dibenzenacyclotridecaphan-10-ene-5^2-carboxamide] were, in that order, < 20 nM and < 1000 nM.
In the case of `CNC(=O)c1cc2ccc1Nc1nc(ncc1C(F)(F)F)Nc1ccc(c(OC)c1)OCCCCCCO2` [Compound 7, 1^3-Methoxy-N-methyl-3^5-(trifluoromethyl)-6,13-dioxa-2,4-diaza-3(2,4)-pyrimidina-1,5(1,4)-dibenzenacyclotridecaphane-5^2-carboxamide], the IC50 in assay [1] was < 20 nM.
Take `C=CCCOc1ccc(Nc2nc(Nc3ccc(OC)c(OCC=C)c3)ncc2C(F)(F)F)c(C(=O)NC)c1` [Compound 8, 2-((2-((3-(Allyloxy)-4-methoxyphenyl)amino)-5-(trifluoromethyl)pyrimidin-4-yl)amino)-5-(but-3-en-1-yloxy)-N-methylbenzamide]: the IC50 in assay [1] is < 20 nM.
As for `CNC(=O)c1cc2ccc1Nc1nc(ncc1C(F)(F)F)Nc1ccc(OC)c(c1)OC/C=C/CCO2` [Compound 9, (E/Z)-1^4-Methoxy-N-methyl-3^5-(trifluoromethyl)-6,12-dioxa-2,4-diaza-3(2,4)-pyrimidina-1(1,3),5(1,4)-dibenzenacyclododecaphan-9-ene-5^2-carboxamide], the IC50 was < 20 nM in assay [1] and < 1000 nM in assay [2].
The corresponding values for `CNC(=O)c1cc2ccc1Nc1nc(ncc1C(F)(F)F)Nc1ccc(OC)c(c1)OCCCCCO2` [Compound 10, 1^4-Methoxy-N-methyl-3^5-(trifluoromethyl)-6,12-dioxa-2,4-diaza-3(2,4)-pyrimidina-1(1,3), 5(1,4)-dibenzenacyclododecaphane-5^2-carboxamide] are < 20 nM and > 1000 nM.
For `C=CCCOc1ccc(Nc2nc(Nc3ccc(OCC=C)c(OC)c3)ncc2Br)c(C(=O)NC)c1` [Compound 11], the IC50 in assay [1] was > 20 nM.
Take `CNC(=O)c1ccc2cc1Nc1nc(ncc1C(F)(F)F)Nc1ccc(OC)c(c1)OC/C=C\CCCO2` [Compound 12, (E)-1^4-methoxy-N-methyl-35-(trifluoromethyl)-6,13-dioxa-2,4-diaza-3(2,4)-pyrimidina-1,5(1,3)-dibenzenacyclotridecaphan-10-ene-5^6-carboxamide]: the results for the concentration for half-maximal inhibition (IC50) in assay [1] and in assay [2] were > 20 nM and > 1000 nM, respectively.
Consider `CNC(=O)c1ccc2cc1Nc1nc(ncc1C(F)(F)F)Nc1ccc(OC)c(c1)OC/C=C/CCCO2` [Compound 13, (Z)-1^4-methoxy-N-methyl-35-(trifluoromethyl)-6,13-dioxa-2,4-diaza-3(2,4)-pyrimidina-1,5(1,3)-dibenzenacyclotridecaphan-10-ene-5^6-carboxamide], for which the figures for the IC50 in assay [1] and in assay [2] were > 20 nM and > 1000 nM, respectively.
The like results for `CNC(=O)c1ccc2cc1Nc1nc(ncc1C(F)(F)F)Nc1ccc(OC)c(c1)OCCCCCCO2` [Compound 14, 1^4-Methoxy-N-methyl-3^5-(trifluoromethyl)-6,13-dioxa-2,4-diaza-3(2,4)-pyrimidina-1,5(1,3)-dibenzenacyclotridecaphane-5^6-carboxamide] were, in that order, > 20 nM and > 1000 nM.
For `CNC(=O)c1ccc2cc1Nc1nc(ncc1C(F)(F)F)Nc1ccc(c(OC)c1)OC/C=C/CCCO2` [Compound 15, (E)-5^3-methoxy-N-methyl-3^5-(trifluoromethyl)-6,13-dioxa-2,4-diaza-3(4,2)-pyrimidina-1(1,3),5(1,4)-dibenzenacyclotridecaphan-8-ene-1^6-carboxamide], the IC50 in assay [1] was > 20 nM; in assay [2], > 1000 nM.
